Laboratory results from patent publication US9670521B2, “Amino acid derivatives” (priority 2012, dated 2017).
Where two headings read alike, the source gives them in different places.

Target: T1, pyIRS/tRNA pair (Methanosarcina mazei, UniProt Q8PWY1)
T1 construct: expressed in transfected cells
Type: cell-based
Settings: for GFP expression / incorporation in the GFP reporter (in words): GFP assay, HEK293 cells expressing pyIRS/tRNApyl and GFPY40, nnAA at 2 mM; for Positive GFP / Positive GFP Assay: HEK293 cells stably expressing pyIRS (3H7), tRNApyl + GFPY40 reporter, nnAA at 2 mM for 2-3 days; for Positive GFP: visual inspection under the microscope; for Positive GFP Assay: Formula VI analogs
Source text: An in vitro cell based assay was developed to assess the compatibility of the pyIRS/tRNA pair and the pyrrolysine analogs of the present invention (nnAAs) by and the efficiency of nnAAs integration into a target protein. For this, HEK293 cells stably expressing pyIRS (3H7) were transiently transfected with plasmids for the expression of tRNApyl and a reporter construct encoding GFPY40 (containing amber codon in place of tyrosine at amino acid residue number 40 (where 1 is the initiator methionine)) using standard transfection protocols. Transfected cells were incubated with nnAAs at 2 mM for 2-3 days GFP production was analyzed qualitatively by visual inspection under the microscope. The GFP fluorescence was quantified by flow cytometry using an Accuri flow cytometer and the geometric mean of the fluorescent cells determined.
This cell based assay was used to determine whether the different nnAAs were suitable substrates for the pyIRS and allowed its translation into a target protein. Cells expressing the PyIRS/tRNApyl pair and containing a vector encoding the GFPY40 reporter gene were incubated in the presence of the nnAAs. nnAAs that are readily utilized by the PyIRS/tRNApyl pair support the translation of the nnAA into the amber site of GFP and allow read-through of the gene producing full length GFP (fluorescent protein). The fluorescence intensity of the cells depends on the efficiency of nnAA incorporation. Thus, nnAAs that are poorly utilized produce weakly fluorescent or non-fluorescing cells. […] Furthermore, the relative expression levels in each sample was compared to those generated by substrates known to be efficiently utilized by pyIRS.

T1 sequence (Q8PWY1 whole entry): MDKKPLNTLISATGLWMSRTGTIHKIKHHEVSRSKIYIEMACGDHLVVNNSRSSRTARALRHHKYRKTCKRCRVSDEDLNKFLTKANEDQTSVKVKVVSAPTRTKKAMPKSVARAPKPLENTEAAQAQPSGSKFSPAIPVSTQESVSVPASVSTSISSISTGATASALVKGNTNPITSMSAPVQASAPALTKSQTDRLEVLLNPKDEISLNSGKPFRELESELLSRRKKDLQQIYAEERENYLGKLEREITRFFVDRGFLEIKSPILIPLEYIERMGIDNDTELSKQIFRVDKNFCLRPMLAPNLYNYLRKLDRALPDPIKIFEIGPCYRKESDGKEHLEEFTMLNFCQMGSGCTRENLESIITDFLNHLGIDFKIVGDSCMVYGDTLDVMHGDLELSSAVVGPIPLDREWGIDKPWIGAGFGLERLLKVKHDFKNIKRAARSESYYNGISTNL

SMILES	GFP expression / incorporation in the GFP reporter (in words)	Positive GFP	GFP expression / incorporation in the GFP reporter (in words) (listed as VI.1)	Positive GFP Assay
[N-]=[N+]=NCCOC(=O)NCCCC[C@H](N)C(=O)O [Formula V.1, (2S)-2-amino-6-{[(2-azidoethoxy)carbonyl]amino}hexanoic acid]	high levels of GFP expression	Yes	–	–
C#CCOC(=O)NCCCC[C@H](N)C(=O)O [Formula V.2, (2S)-2-amino-6-{[(prop-2-yn-1-yloxy)carbonyl]amino}hexanoic acid]	high levels of GFP expression	Yes	–	–
C=CCOC(=O)NCCCC[C@H](N)C(=O)O [Formula V.3, (2S)-2-amino-6-{[(prop-2-en-1-yloxy)carbonyl]amino}hexanoic acid]	high levels of GFP expression	Yes	–	–
[N-]=[N+]=NCCNC(=O)OCCCC[C@H](N)C(=O)O [Formula VI.1, (2S)-2-amino-6-{[(2-azidoethyl)carbamoyl]oxy}hexanoic acid]	high levels of GFP expression	–	yield green cells	Yes
C=CCNC(=O)OCCCC[C@H](N)C(=O)O [Formula VI.3, (2S)-2-amino-6-{[(prop-2-en-1-yl)carbamoyl]oxy}hexanoic acid]	yield green cells	–	–	Yes
